Assay results taken from patent publication US6403647B1, “Pulsed administration of compositions for the treatment of blood disorders” (priority 1996, dated 2002).

Assays:
[1] = Conventional versus pulse treatment of a sickle cell patient; format: in vivo, human
Experimental: Conventional treatment: A patient with sickle cell disease was tested with arginine butyrate at 750 mg/kg. Drug was administered by infusion for 10-16 hours per day and 5 days/week. […] After 150 days, total HbF declined to about 10%.
Pulse treatment: Treatment of the same sickle cell patient as above was changed from weekly to pulse administration of arginine butyrate about one year later (FIG. 5B). Arginine butyrate was administered by infusion at 500 to 750 mg/kg for 4 days for about 10-16 hours per day. After the 4 day regimen, drug was withheld for 10 days before treatment was repeated. This regimen was continued for about 5 months and percent total fetal hemoglobin increased to over 20%. This level was maintained until treatment was discontinued. Hemoglobin F levels above 20% are generally considered to be sufficient to eliminate symptoms associated with sickle cell disease.

[2] = Total hemoglobin in phlebotomized anemic baboons, continuous versus pulse therapy; format: in vivo, baboon; conditions: continuous, 700 mg/kg/day for 5 days; phlebotomized baboon; from 6.7
Experimental: Therapy was administered to anemic baboons who were being phlebotomized 5-10 ml/kg of blood per day on a continuous basis. EPO was administered daily at 300 U/kg/dose. Arginine butyrate was administered daily at 700 mg/kg/day for 5 days and phenoxyacetic acid at 500 mg/kg/day daily over 8 hours and at 1000 mg/kg/day for 24 hours/day daily for five days each. […] With continuous arginine butyrate treatment, hemoglobin remained essentially stable at 6.7 to 6.9 gram/dl. With continuous treatment with phenoxyacetic acid, hemoglobin levels remained stable at 7.0 gram/dl to 6.9 gram/dl during 8 hour therapy and declined from 6.8 to 4.5 when the drug was given for 24 hours per day for 5 days.

[3] = Continuous 24 hour per day infusions in sickle cell disease and beta thalassemia patients; format: in vivo, human
Experimental: Continuous 24 hour per day infusions of was administered in another study to 10 patients with sickle cell disease and beta thalassemia and produced rises in fetal globin in a lower proportion of patients, 40%. Many of these responses were not sustained.
Therefore, the same infusion rate given for 24 hours/day results in a lower response rate than does 8-16 hour/day treatment at the same infusion rate. A lower proportions of patients respond hematologically with continuous 24 hours therapy (1/10 patients) than respond to intermittent pulse therapy 8/10 patients. Hematologic responses are higher with pulse therapy (2-5) gram/dl above baseline levels compared to no responses in patients treated with 24 hour therapy.

Bfu-e = experiment: Erythroid colony (Bfu-e) proliferation with maximal growth factors, normal subject; format: cell-based, human; conditions: 0.1 mM
Text: Erythroid cells were obtained, as described in Example 1, from a normal subject and cultured on semi-solid medium in the presence of a maximal amount of erythroid growth factors including IL-6, GM-CSF, SCF and EPO. Erythroid proliferation in the presence of these factors is expected to be maximal and, therefore, any increases observed would be significant.

Substance: arginine butyrate
- percent total HbF ([1]; conventional treatment, after 150 days): about 10%
- percent total HbF ([1]; conventional, 750 mg/kg infusion 10-16 hours per day, 5 days/week, from 3%): 15-18%
- percent total fetal hemoglobin ([1]; pulse, 500 to 750 mg/kg for 4 days, 10 days withheld, about 5 months): over 20%
- total hemoglobin after treatment [2]: 6.9 gram/dl
- proportion of patients with rises in fetal globin ([3]; continuous 24 hour per day infusions, 10 patients): 40%
- patients responding hematologically ([3]; continuous 24 hours therapy): 1/10
- Bfu-e colonies, % of control (Bfu-e): 16 % of control
